A value given as a limit tells only on which side of the number the result lay.

Assay [1] deals with Voltage-dependent L-type calcium channel subunit alpha-1C (Homo sapiens, UniProt Q13936). The class given is functional, cell-based.
Assay [2] deals with T1, D(1A) dopamine receptor (Homo sapiens, UniProt P21728). The class given is functional, cell-based.
The target of assay [3] is T2, Muscarinic acetylcholine receptor M1 (Homo sapiens, UniProt P11229).
T2 sequence (P11229 whole entry): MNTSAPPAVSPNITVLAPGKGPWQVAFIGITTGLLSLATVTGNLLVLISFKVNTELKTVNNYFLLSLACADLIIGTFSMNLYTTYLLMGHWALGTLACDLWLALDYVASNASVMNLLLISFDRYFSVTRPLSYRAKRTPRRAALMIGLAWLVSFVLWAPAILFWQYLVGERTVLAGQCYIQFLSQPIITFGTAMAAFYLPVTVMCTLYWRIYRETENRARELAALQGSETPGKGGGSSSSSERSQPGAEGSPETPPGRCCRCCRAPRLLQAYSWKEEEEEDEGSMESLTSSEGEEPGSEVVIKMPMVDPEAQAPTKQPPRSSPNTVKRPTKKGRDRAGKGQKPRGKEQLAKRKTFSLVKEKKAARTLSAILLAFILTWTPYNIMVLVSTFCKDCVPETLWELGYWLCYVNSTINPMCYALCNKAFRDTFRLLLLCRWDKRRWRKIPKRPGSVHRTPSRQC
The assay is classed as functional, cell-based.

Assay [4] addresses T2, Muscarinic acetylcholine receptor M1. The assay is classed as functional, cell-based. This is another data set of the same source.
The target of assay [5] is T3, Muscarinic acetylcholine receptor M2 (Homo sapiens, UniProt P08172).
T3 sequence (P08172 whole entry): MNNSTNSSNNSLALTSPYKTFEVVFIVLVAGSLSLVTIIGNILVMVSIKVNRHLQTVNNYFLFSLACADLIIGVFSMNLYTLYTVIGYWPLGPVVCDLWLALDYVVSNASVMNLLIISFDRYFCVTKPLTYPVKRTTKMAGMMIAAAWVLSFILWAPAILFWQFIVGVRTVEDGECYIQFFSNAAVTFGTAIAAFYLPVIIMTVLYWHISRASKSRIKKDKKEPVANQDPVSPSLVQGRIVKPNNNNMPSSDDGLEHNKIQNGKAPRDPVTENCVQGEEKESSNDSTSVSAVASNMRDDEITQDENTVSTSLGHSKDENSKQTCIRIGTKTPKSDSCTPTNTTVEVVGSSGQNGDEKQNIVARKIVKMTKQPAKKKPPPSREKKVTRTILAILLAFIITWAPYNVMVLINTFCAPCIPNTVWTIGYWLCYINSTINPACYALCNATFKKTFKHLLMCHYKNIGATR

The target of assay [6] is T4, Alpha-1A adrenergic receptor (Homo sapiens, UniProt P35348).
T4 sequence (P35348 whole entry): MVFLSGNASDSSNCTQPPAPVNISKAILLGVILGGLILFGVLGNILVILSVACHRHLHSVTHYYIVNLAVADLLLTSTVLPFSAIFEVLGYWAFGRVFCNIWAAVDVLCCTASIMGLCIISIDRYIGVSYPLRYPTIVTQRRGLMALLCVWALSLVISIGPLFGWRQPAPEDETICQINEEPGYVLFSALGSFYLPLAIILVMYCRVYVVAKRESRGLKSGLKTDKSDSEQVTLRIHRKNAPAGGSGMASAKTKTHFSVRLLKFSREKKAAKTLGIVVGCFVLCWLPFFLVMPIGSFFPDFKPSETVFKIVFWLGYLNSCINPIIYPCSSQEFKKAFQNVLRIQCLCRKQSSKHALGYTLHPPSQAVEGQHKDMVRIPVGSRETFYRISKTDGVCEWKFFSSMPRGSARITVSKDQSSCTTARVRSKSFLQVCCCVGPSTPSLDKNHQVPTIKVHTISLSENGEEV

Assay [7] addresses Sodium-dependent dopamine transporter (Homo sapiens, UniProt Q01959).
Assay [8] has as its target T5, Prostaglandin G/H synthase 1 (Homo sapiens, UniProt P23219). The class given is functional.
Assay [9] addresses 5-hydroxytryptamine receptor 2B (Homo sapiens, UniProt P41595). The assay is classed as functional, cell-based.
A further assay deals with T6, Estrogen receptor (Homo sapiens, UniProt P03372).
T6 sequence (P03372 whole entry): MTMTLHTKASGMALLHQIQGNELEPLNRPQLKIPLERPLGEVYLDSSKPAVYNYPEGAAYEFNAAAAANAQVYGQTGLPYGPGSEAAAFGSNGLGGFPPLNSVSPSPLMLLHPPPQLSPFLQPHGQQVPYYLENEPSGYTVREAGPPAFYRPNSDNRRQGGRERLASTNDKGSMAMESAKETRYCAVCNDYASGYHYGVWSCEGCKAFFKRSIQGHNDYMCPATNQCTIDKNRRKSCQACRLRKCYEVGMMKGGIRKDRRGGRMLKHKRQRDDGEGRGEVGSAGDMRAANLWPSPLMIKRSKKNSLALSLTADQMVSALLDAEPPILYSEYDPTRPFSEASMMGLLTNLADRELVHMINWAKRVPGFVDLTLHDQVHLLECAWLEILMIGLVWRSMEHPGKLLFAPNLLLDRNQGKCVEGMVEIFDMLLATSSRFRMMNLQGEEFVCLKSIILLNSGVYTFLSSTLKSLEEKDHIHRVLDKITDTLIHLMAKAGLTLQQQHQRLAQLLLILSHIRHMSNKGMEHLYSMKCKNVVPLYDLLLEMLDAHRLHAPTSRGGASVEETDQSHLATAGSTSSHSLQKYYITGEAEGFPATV

The target of assay [10] is T1, D(1A) dopamine receptor.
The target of assay [11] is T5, Prostaglandin G/H synthase 1. The class given is functional. This is another data set of the same source.
For assay [12], the target named is Sodium-dependent noradrenaline transporter (Homo sapiens, UniProt P23975).
Sequence of Sodium-dependent noradrenaline transporter (P23975 whole entry): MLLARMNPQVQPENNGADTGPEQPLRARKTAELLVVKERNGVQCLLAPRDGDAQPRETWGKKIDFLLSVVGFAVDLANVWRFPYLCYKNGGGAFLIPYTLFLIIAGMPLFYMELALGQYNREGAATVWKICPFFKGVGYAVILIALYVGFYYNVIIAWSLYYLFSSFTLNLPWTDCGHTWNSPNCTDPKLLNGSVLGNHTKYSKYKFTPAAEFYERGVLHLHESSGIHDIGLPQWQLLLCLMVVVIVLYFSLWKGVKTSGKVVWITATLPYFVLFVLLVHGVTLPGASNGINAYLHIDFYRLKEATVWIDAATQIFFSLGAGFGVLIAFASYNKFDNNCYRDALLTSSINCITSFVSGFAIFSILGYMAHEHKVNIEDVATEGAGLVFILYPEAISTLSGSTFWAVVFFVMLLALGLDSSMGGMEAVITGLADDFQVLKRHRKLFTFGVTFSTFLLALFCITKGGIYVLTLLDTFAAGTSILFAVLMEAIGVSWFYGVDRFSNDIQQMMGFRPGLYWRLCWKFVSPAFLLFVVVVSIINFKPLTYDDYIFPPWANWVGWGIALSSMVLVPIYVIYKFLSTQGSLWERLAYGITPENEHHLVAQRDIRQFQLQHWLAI
The next assay deals with D(3) dopamine receptor (Homo sapiens, UniProt P35462).
Sequence of D(3) dopamine receptor (P35462 whole entry): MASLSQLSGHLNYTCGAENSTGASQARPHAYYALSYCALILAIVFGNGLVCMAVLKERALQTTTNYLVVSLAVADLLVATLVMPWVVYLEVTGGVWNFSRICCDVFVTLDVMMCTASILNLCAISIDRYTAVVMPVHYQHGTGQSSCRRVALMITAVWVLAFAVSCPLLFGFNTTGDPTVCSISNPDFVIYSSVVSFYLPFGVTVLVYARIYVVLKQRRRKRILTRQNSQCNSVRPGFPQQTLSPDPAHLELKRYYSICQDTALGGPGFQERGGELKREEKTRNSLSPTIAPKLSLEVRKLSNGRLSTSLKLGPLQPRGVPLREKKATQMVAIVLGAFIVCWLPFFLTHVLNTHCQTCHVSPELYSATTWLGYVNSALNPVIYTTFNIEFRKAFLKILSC
The target in assay [13] is T1, D(1A) dopamine receptor. This is another data set of the same source.
The next assay deals with Mu-type opioid receptor (Homo sapiens, UniProt P35372).
Sequence of Mu-type opioid receptor (P35372 whole entry): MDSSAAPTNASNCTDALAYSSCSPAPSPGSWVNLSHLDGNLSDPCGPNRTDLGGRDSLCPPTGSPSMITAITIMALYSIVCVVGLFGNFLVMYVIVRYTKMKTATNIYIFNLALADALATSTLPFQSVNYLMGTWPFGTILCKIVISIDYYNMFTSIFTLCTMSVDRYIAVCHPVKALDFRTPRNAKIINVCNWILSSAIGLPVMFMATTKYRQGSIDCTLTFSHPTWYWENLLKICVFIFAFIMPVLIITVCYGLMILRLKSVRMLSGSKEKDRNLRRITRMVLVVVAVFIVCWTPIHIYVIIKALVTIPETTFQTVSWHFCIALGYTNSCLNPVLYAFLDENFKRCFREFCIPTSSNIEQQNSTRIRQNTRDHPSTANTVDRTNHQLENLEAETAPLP
Further: assay procedure not described here.

T5 sequence (P23219 whole entry): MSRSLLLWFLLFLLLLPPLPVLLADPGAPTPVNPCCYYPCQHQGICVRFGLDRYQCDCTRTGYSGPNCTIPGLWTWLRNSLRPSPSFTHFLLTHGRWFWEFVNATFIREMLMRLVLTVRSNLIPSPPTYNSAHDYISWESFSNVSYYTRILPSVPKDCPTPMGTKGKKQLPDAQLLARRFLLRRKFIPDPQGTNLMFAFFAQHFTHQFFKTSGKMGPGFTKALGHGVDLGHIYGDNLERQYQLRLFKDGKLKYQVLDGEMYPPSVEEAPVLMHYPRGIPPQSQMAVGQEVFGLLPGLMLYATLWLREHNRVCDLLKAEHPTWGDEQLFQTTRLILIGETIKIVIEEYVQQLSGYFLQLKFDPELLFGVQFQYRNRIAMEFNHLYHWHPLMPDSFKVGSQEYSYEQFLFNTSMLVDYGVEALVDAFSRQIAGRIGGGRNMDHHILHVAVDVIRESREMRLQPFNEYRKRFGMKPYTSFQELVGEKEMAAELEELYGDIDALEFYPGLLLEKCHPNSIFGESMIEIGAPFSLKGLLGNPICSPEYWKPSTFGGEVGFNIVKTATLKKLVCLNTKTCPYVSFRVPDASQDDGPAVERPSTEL
T1 sequence (P21728 whole entry): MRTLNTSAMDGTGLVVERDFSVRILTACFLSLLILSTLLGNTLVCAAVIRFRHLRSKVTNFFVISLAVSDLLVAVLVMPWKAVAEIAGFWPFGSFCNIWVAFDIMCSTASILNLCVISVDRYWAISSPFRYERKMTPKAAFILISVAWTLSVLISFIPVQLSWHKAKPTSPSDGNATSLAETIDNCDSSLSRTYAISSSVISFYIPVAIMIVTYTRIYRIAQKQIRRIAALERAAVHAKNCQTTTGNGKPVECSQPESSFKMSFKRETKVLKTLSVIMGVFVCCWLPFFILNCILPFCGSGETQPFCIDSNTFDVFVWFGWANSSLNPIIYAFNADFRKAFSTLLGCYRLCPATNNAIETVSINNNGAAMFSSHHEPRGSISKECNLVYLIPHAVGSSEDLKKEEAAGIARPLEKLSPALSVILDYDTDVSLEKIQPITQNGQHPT
Sequence of 5-hydroxytryptamine receptor 2B (P41595 whole entry): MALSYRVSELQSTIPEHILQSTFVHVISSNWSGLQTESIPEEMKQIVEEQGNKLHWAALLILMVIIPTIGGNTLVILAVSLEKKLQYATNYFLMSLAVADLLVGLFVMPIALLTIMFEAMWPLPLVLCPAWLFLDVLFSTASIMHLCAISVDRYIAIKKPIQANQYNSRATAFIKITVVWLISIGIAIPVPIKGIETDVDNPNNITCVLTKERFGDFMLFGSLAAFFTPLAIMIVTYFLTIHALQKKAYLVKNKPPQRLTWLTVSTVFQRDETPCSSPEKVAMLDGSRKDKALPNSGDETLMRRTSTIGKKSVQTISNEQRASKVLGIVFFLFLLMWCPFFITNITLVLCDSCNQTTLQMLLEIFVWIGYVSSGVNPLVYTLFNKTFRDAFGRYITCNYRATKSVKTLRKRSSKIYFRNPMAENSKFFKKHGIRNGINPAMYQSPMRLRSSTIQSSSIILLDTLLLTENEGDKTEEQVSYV
Sequence of Sodium-dependent dopamine transporter (Q01959 whole entry): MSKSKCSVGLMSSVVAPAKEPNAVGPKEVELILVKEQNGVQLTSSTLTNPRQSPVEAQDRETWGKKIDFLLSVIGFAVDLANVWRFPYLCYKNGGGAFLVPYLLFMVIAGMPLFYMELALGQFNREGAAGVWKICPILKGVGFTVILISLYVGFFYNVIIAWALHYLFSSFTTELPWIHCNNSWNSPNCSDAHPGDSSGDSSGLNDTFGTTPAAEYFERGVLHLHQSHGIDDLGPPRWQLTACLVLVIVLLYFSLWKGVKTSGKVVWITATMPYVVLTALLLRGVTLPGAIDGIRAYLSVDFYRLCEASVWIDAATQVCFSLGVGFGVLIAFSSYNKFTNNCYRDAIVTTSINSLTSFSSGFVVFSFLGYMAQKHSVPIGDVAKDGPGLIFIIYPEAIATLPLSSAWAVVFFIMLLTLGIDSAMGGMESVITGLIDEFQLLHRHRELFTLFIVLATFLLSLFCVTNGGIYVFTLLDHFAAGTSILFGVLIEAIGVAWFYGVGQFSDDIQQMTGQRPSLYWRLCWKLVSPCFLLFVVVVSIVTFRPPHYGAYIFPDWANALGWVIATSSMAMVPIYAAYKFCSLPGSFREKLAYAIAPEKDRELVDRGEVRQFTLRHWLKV

Take `N#Cc1ccccc1-c1cc(-c2ccccn2)cn(-c2ccccc2)c1=O`: the AC50 in [1] is above 30 µM.
For the compound `O=C(CCCN1CCC(n2c(O)nc3ccccc32)CC1)c1ccc(F)cc1` [BENPERIDOL], the AC50 on D(1A) dopamine receptor [2] amounted to 7.5 µM.
As for `CCN(CC)C(=O)C1CN2CCc3cc(OC)c(OC)cc3C2CC1OC(C)=O` (configuration not stated) [BENZQUINAMIDE], the AC50 in assay [3] and in assay [4] was above 30 µM in each case.
Consider `CC(C)(C)NCC(O)c1cc(Cl)c(N)c(Cl)c1` (configuration not stated) [CLENBUTEROL], for which the AC50 at D(1A) dopamine receptor [2] was above 30 µM.
As for `COC(=O)N[C@@H](C)CNc1nccc(-c2cn(C(C)C)nc2-c2cc(Cl)cc(NS(C)(=O)=O)c2F)n1` [ENCORAFENIB], the AC50 in [1] was above 30 µM.
Turning to `C[n+]1ccccc1/C=N/O` [PRALIDOXIME], the AC50 (in [5]; in assay [6]; in assay [7]; in assay [8]; in assay [9]; at Estrogen receptor) was above 30 µM throughout. Moreover, the AC50 (at D(1A) dopamine receptor [10]; in assay [11]; in [12]; at D(3) dopamine receptor; on D(1A) dopamine receptor [13]; on Mu-type opioid receptor) was above 30 µM throughout.
Consider `CCCOC(C(=O)OC1CCN(C)CC1)(c1ccccc1)c1ccccc1` [PROPIVERINE], for which the figures for the AC50 in assay [3] and in [4] were 0.59 µM and above 30 µM, respectively.
On to COLISTIN, for which the AC50 is above 30 µM in assay [5]; above 30 µM in [6]; 26.6 µM in assay [7]; above 30 µM in [8]; above 30 µM in assay [9]; above 30 µM at Estrogen receptor. Moreover, the half-maximal activity concentration (AC50) at D(1A) dopamine receptor [10] is above 30 µM; in [11], 11.2 µM; in assay [12] it was above 30 µM; on D(3) dopamine receptor, above 30 µM; at D(1A) dopamine receptor [13], above 30 µM; on Mu-type opioid receptor, above 30 µM.

Source of the values: ChEMBL document CHEMBL5291721, “A preclinical secondary pharmacology resource illuminates target-adverse drug reaction associations of marketed drugs” (Nat Commun, 2023).
